Results reported in patent US20260014226A1, “STABLE READY TO DILUTE COMPOSITION OF CARFILZOMIB” (Kashiv BioSciences, LLC, priority 2021, published 2026).

Test system: diluted blood (red blood cell)
Assay type: cell-based, Human
Method: The term “hemolytic potential’ refers to ability of fluid to degrade the red blood cell and releases hemoglobin. The hemolytic potential is measured as release of hemoglobin from blood cells. • Blank, Negative and Positive Control • Blank: Diluted Blood • Negative control (Vehicle): 0.9% Sodium chloride (Normal Saline) is isotonic with Human blood. • Positive control: 5% Saponin was used as positive control Required quantity of blood was collected into K2 EDTA vials and immediately mixed well, this was used for the study within 24 hours of blood collection. The blood was maintained at ambient room temperature before use. Hemoglobin was determined using Advia 2120i heamtology system for this purpose, concentrations will be determined twice, before and after dilution. A separate aliquot of blood was centrifuged, and plasma was analyzed for hemoglobin to ensure blood was not hemolyzed before the study. Hemoglobin standard solutions was prepared using human hemoglobin. Initially, a stock solution of 180 mg hemoglobin/mL was prepared in Drabkin's reagent by dissolving the hemoglobin powder in Drabkin's reagent. The working standards of at least 6 different concentrations was prepared in Drabkin's reagent and was read in plate reader at 540 nm wavelength. […]

Saponin [Positive control]
% Hemolysis: 100.00%
